Measured values taken from US11732029B2, “Methods and compositions for the treatment of wounds” (The University of Chicago, priority 2017, dated 2023).
“Also recorded” adds a separate entry of the source.

B1: vWF A2: recombinant human vWF A2 domain (R & D systems) (protein)
chain: DVAFVLEGSDKIGEADFNRSKEFMEEVIQRMDVGQDSIHVTVLQYSYMVTVEYPFSEAQSKGDILQRVREIRYQGGNRTNTGLALRYLSDHSFLVSQGDREQAPNLVYMVTGNPASDEIKRLPGDIQVVPIGVGPNANVQELERIGWPNAPILIQDFETLPREAPDLV

How the values were obtained:
[1] = Heparin binding to synthesized laminin peptides (ELISA); design: key to Interaction with Heparin: ++ indicates high affinities; + indicates medium/low affinities; settings: for binding to heparin: ELISA, peptide-coated plate, 10 μg/mL biotinylated heparin; for Interaction with Heparin: summary Table 2
Procedure: (§1) ELISA tests were performed as described above. In brief, ELISA plates were coated with 1 μg/mL of laminin alpha 3 LG domain recombinant protein, laminin alpha 4 LG domain recombinant protein (R&D systems), laminin alpha 5 LG domain recombinant protein (LD BioPharma), or laminin peptide (sequences are described in Table 1, chemically synthesized by Genscript) in PBS for 2 hrs at 37° C. 1 μg/mL of BSA served as non-binding protein control. After blocking with 2% BSA PBS-0.05% Tween 20 (PBS-T) solution, 1 μg/mL of the recombinant human proteins (VEGF-A121, VEGF-A165, PlGF-1, PlGF-2, PDGF-BB or FGF-2) or 10 μg/mL of biotinylated heparin (Sigma-Aldrich) were added. Bound GF was detected with biotinylated antibodies for human VEGF, PlGF, PDGF-BB, or FGF-2 (R&D Systems). The antibodies were detected by streptavidin-HRP (R&D Systems).

PDGF-BB = molecular target: T1, PDGF-BB (Homo sapiens, UniProt P01127); assay: GF binding to recombinant laminin LG domain protein and synthesized laminin HBD peptides (ELISA); settings: plate coated with LG domain protein or peptide, 1 μg/mL GF, vs BSA-coated wells
T1 construct: All growth factors (GFs) and chemokines were purchased in their mature forms; purchased PeproTech; host or cells: Escherichia coli
Procedure: as §1

VEGF-A165 [2] = molecular target: T2, VEGF-A165 (Homo sapiens, UniProt P15692); assay: as above; settings: plate coated with LG domain protein or peptide, 1 μg/mL GF, vs BSA-coated wells
T2 construct: All growth factors (GFs) and chemokines were purchased in their mature forms; purchased PeproTech; host or cells: Escherichia coli
T2 sequence (P15692 27-191 isoform P15692-4 limits assumed): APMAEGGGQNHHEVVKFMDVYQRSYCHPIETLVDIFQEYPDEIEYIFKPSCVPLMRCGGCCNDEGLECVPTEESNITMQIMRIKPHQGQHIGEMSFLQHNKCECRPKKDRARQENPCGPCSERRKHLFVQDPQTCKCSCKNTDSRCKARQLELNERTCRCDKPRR
Procedure: as §1

GFs = assay: GF binding to synthesized laminin peptides (ELISA), all tested GFs together; design: species or system human; key to Interaction with GFs: ++ indicates high affinities; + indicates medium/low affinities; settings: for Interaction with GFs: summary Table 2; for binding to the tested GFs: ELISA, statement for all tested GFs (VEGF-A, PlGF, PDGF-BB, FGF-2)
Procedure: as §1

[3] = test system: syndecan-1, syndecan-2, syndecan-3, syndecan-4; assay: Recombinant syndecan binding to synthesized laminin HBD peptides (ELISA); design: species or system human; key to Interaction with Syndecans: ++ indicates high affinities; + indicates medium/low affinities; settings: for binding to recombinant syndecans (syndecan 1-4): ELISA, peptide-coated plate, 1 μg/mL syndecan; for Interaction with Syndecans: summary Table 2
Procedure: ELISA tests were performed as described above. In brief, ELISA plates were coated with 1 μg/mL laminin peptide (sequences are described in Table 1, chemically synthesized by Genscript) in PBS for 2 hrs at 37° C. 1 μg/mL of BSA served as non-binding protein control. After blocking with 2% BSA PBS-T solution, 1 μg/mL of the recombinant human syndecan-1, syndecan-2, syndecan-3, syndecan-4 (all syndecan proteins are histidine-tagged; SinoBiological) were added. Bound GF was detected with anti-histidine tag antibody (1:1000 dilution, BioLegend).

FGF-2 = FGF-2 (Homo sapiens, UniProt P09038); assay: GF binding to recombinant laminin LG domain protein and synthesized laminin HBD peptides (ELISA); design: All growth factors (GFs) and chemokines were purchased in their mature forms; purchased PeproTech; host or cells: Escherichia coli; settings: plate coated with LG domain protein or peptide, 1 μg/mL GF, vs BSA-coated wells
Procedure: as §1

PlGF-2 = molecular target: T3, PlGF-2 (Homo sapiens, UniProt P49763); assay: as above; design: All growth factors (GFs) and chemokines were purchased in their mature forms; purchased PeproTech; host or cells: Escherichia coli; settings: plate coated with LG domain protein or peptide, 1 μg/mL GF, vs BSA-coated wells
T3 sequence (P49763 19-170 isoform P49763-3 limits assumed): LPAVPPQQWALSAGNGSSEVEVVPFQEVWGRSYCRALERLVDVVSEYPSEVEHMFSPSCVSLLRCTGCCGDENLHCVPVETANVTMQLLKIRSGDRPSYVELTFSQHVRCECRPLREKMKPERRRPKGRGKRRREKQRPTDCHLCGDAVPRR
Procedure: as §1

human lung fibroblasts = assay: Cell adhesion assay, fibroblasts on laminin peptide coated plates; format: cell-based; design: key to Cell adhesion Fibroblasts: ++ indicates high affinities; + indicates medium/low affinities; settings: for fibroblast attachment: peptide-coated plates, 30 min at 37° C., without EDTA; for Cell adhesion Fibroblasts: summary Table 2
Procedure: (§2) 96-well plates (non-tissue culture treated, Greiner Bio-one) were pre-coated with 1 μg/mL with laminin HBD peptides in PBS for 2 hrs at 37° C., followed by blocking with 2% BSA PBS for 1 h at RT. Cell adhesion assays were performed using human lung fibroblasts (Lonza) in FGM-2 medium (Lonza) or human umbilical vein endothelial cells (HUVEC; Lonza) in EGM-2 medium (Lonza) supplemented with 1% fetal bovine serum (FBS) and […] VEGF-A165, with or without 5 mM EDTA (Sigma-Aldrich). Cells were plated at 3000 cells/well on laminin peptide pre-coated plates and incubated for 30 min at 37° C., 5% CO2. Then, the medium was removed, and wells were quickly washed three times with PBS. Cell numbers were quantified using a CyQUANT assay, according to the manufacturer's instructions (Invitrogen). All cell lines were checked for mycoplasma contamination and used in passages from 5 to 8.

VEGF-A145 = molecular target: T4, VEGF-A145 (Homo sapiens, UniProt P15692); assay: vWF binding to recombinant VEGF-A isoforms (ELISA); settings: plate coated with 50 nM vWF domains, 1 μg/mL VEGF-A, vs BSA
T4 construct: All GFs and chemokines were purchased in their mature forms; purchased R & D Systems
T4 sequence (P15692 27-171 isoform P15692-6 limits assumed): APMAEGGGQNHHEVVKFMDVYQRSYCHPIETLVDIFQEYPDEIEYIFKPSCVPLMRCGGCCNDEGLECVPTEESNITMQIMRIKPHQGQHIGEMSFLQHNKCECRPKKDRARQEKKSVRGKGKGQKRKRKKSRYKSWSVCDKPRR
Procedure: (§3) ELISA was performed as previously reported1. In brief, ELISA plates (med binding: Greiner Bio-One) were coated with 50 nM BSA (GE Healthcare), pro-peptide containing recombinant vWF (Sino Biological), plasma-derived vWF (EMD Millipore), recombinant human vWF A1 domain (U-Protein Express), recombinant human vWF A2 domain (R & D systems), recombinant human vWF A3 domain (U-Protein Express), vWF A1 HBD peptide or scrambled/mutated HBD peptide (all peptides were synthesized by Genscript). After blocking with 2% BSA solution containing PBS-T, 1 μg/mL of recombinant human VEGF-A121 (PeproTech), recombinant human VEGF-A145 (R & D Systems), or recombinant human VEGF-A165 (PeproTech) was added. Bound VEGF-A was detected with 1 μg/mL of mouse anti-human VEGF-A antibody (clone: 26503, R & D systems). After 60 min of incubation, horseradish peroxidase (HRP) conjugated goat anti-mouse antibody (1:2000 dilution, Dako) was added and incubated for another 60 min. Color development and the absorbance measurement were done as described above.

VEGF-A165 [4] = molecular target: T2, VEGF-A165; assay: vWF binding to recombinant VEGF-A isoforms (ELISA); settings: plate coated with 50 nM vWF domains, 1 μg/mL VEGF-A, vs BSA
Procedure: as §3

HUVEC = assay: Cell adhesion assay, HUVEC on laminin peptide coated plates; format: cell-based, human; design: key to Cell adhesion HUVECs: ++ indicates high affinities; + indicates medium/low affinities; settings: for HUVEC attachment: peptide-coated plates, 30 min at 37° C., without EDTA; for Cell adhesion HUVECs: summary Table 2
Procedure: as §2

Sequence of FGF-2 (P09038 143-288): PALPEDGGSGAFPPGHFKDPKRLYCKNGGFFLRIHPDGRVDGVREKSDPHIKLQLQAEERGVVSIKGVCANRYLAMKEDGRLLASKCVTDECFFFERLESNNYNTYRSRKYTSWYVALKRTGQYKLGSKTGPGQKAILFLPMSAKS
T1 sequence (P01127 82-190 limits assumed): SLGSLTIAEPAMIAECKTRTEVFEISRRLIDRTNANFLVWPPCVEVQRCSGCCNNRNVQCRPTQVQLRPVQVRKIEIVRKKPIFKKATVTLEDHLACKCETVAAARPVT

Molecule	binding to heparin [1]	Interaction with Heparin [1]	binding to PDGF-BB (PDGF-BB)	binding to VEGF-A165 (VEGF-A165 [2])	Interaction with GFs (GFs)	binding to recombinant syndecans (syndecan 1-4) [3]	Interaction with Syndecans [3]	binding to FGF-2 (FGF-2)	binding to PlGF-2 (PlGF-2)	fibroblast attachment (human lung fibroblasts)	Cell adhesion Fibroblasts (human lung fibroblasts)	binding to VEGF-A145 (VEGF-A145)	binding to VEGF-A165 (VEGF-A165 [4])	binding to the tested GFs (GFs)	HUVEC attachment (HUVEC)	Cell adhesion HUVECs (HUVEC)
PLFLLHKKGKNLSKPKASQNKKGGKSK [α41408-1434, laminin α4 chain linker peptide, 27 aa]	bound to heparin	++	bound	bound	++	significant binding	++	bound	bound							
KNSFMALYLSKGR [α33031-3043, laminin α3 chain LG4-derived peptide, 13 aa]	non-heparin binding			bound	+	weak binding	+			enhancement of fibroblast attachment	+					
A3: recombinant human vWF A3 domain (U-Protein Express)												no binding	no binding			
ARKASRRSRQPARH [α53312-3325, laminin α5 chain linker peptide, 14 aa]	did not bind to heparin					weak binding	+							did not show particular binding to any tested GF		
pro-peptide-containing recombinant vWF: immature, pro-peptide containing recombinant vWF (Sino Biological)													bind			
TPGLGPRGLQATARKASRRSRQPARHPACML [α53300-3330, laminin α5 chain linker peptide, 31 aa]	bound to heparin	++		preferentially bound	+	significant binding	++		preferentially bound							
RQRSRPGRWHKVSVRWEKNR [α53417-3436, laminin α5 chain LG4-derived peptide, 20 aa]	bound to heparin	++	bound	bound	++	significant binding	++	bound	bound	enhancement of fibroblast attachment	+					
TLPDVGLELEVR [α53539-3550, laminin α5 chain LG5-derived peptide, 12 aa]	did not show binding to heparin; also recorded: non-heparin binding				+	did not show binding								significantly bound to all tested GFs		
TLFLAHGRLVYMFNVGHKKLKIR [α41521-1543, laminin α4 chain LG4-derived peptide, 23 aa]	bound to heparin	++	not statistically significant		+	significant binding	++			enhancement of fibroblast attachment	+				promoted HUVEC attachment	+
PPFLMLLKGSTRFNKTKTFR [α32932-2951, laminin α3 chain LG3-LG4 linker peptide, 20 aa]	bound to heparin	++		preferentially bound	+	weak binding	+	preferentially bound		enhancement of fibroblast attachment	+				promoted HUVEC attachment	+
B1												no binding	no binding			
